Experimental data from patent US11008346B2, “Beta-lactamase inhibitors” (priority 2014, dated 2021).
Where two headings read alike, the source gives them in different places.

Assays:
SHV-5 β-lactamase = target: T1, SHV-5 β-lactamase (Klebsiella pneumoniae, UniProt P0A3M1); assay: β-lactamase enzyme inhibition, SHV-5; type: biochemical
T1 construct: made in house; host or cells: E. coli BL21(DE3)
Procedure, shortened: (§1)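 Enzyme + inhibitor, 15 min, 37° C; substrate added, absorbance read 10 min. OXA-1/p99 AmpC: nitrocefin 100 μM final, A486. KPC-2: imipenem, A300. SHV-5: cefotaxime, A260. IC50 = 50% drop in initial hydrolysis rate vs no-inhibitor control.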

KPC-2 β-lactamase = target: T2, KPC-2 β-lactamase (Klebsiella pneumoniae, UniProt Q9F663); assay: β-lactamase enzyme inhibition, KPC-2; type: biochemical
T2 construct: made in house; host or cells: E. coli BL21(DE3)
T2 sequence (Q9F663 25-293, looked up): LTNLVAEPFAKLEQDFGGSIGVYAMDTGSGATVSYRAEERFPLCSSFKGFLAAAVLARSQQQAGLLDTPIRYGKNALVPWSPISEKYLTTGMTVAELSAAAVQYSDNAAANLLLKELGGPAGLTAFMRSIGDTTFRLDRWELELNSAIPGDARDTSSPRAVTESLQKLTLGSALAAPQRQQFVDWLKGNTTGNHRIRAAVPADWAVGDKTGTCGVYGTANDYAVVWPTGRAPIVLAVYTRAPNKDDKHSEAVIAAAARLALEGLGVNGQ
Procedure, shortened: as §1

[1] = target: T3, VIM-2 metallo β-lactamase (Pseudomonas aeruginosa, UniProt Q9K2N0); assay: β-lactamase enzyme inhibition, VIM-2; type: biochemical; conditions: Nitrocefin 100 μM, 486 nm; 15 min at 37° C. preincubation; read-out: IC50 VIM-2 (Class B)
T3 construct: made in house; host or cells: E. coli BL21(DE3)
Procedure, shortened: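 Inhibitor and enzyme sat together 15 min at 37° C before 100 μM nitrocefin (final) was added and 486 nm absorbance read for 10 min. IC50 is the concentration halving initial hydrolysis rate relative to uninhibited wells. Protein came from Q sepharose anion exchange at pH 7.5, repeated to >90% purity.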

p99 AmpC β-lactamase = target: T4, p99 AmpC β-lactamase (Enterobacter cloacae, UniProt P05364); assay: β-lactamase enzyme inhibition, p99 AmpC; type: biochemical
T4 construct: made in house; host or cells: E. coli BL21(DE3)
T4 sequence (P05364 21-381): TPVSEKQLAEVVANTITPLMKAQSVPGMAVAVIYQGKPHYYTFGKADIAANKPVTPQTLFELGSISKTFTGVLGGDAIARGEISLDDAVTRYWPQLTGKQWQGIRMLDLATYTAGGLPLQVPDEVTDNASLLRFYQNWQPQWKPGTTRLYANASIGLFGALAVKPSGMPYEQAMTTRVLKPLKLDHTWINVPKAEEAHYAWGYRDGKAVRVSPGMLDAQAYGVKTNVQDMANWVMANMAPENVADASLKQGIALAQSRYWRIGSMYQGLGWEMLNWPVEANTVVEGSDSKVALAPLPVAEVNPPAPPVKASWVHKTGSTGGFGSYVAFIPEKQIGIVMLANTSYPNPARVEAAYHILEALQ
Procedure, shortened: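 Inhibitor and enzyme were incubated 15 min at 37°C first. The enzyme was recombinant p99 AmpC, untagged, from E. coli BL21(DE3), purified by ion-exchange and size-exclusion chromatography.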

OXA-1 β-lactamase = target: T5, OXA-1 β-lactamase (Escherichia coli, UniProt P13661); assay: β-lactamase enzyme inhibition, OXA-1; type: biochemical; conditions: Nitrocefin 100 μM, 486 nm; 15 min at 37° C. preincubation; read-out: IC50 OXA-1 (Class D)
T5 construct: made in house; host or cells: E. coli BL21(DE3)
T5 sequence (P13661 26-276): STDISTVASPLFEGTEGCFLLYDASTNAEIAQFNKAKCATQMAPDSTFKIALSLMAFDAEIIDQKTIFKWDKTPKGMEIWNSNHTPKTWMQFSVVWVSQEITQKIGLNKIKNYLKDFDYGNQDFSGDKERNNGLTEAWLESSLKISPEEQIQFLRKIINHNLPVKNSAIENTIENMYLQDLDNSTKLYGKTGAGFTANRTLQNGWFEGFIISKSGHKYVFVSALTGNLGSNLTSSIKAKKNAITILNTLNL
Procedure, shortened: as §1

[2] = system: E. coli ESBL4 expressing CTX-M-15; assay: broth microdilution MIC, E. coli CTX-M-15; type: cell-based; conditions: Fixed CAZ (ceftazidime) 4 μg/mL
Procedure, shortened: (§2)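 First, strains were grown 3-5 hours in CAMHB; then compound dilutions (32 to 0.25 μg/mL final) received a beta-lactam overlay at 4 μg/mL final. Finally, plates were inoculated per CLSI and incubated 16-20 hours at 37° C.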

[3] = system: E. cloacae 144200 expressing Class C P99 AmpC; assay: broth microdilution MIC, E. cloacae P99; type: cell-based; conditions: Fixed CAZ (ceftazidime) 4 μg/mL
Procedure, shortened: as §2

[4] = system: K. pneumoniae 156319 expressing KPC-3; assay: broth microdilution MIC, K. pneumoniae KPC-3; type: cell-based; conditions: Fixed Mero (meropenem) 4 μg/mL
Procedure, shortened: as §2

[5] = system: P. aeruginosa Ps296 expressing VIM-2; assay: broth microdilution MIC, P. aeruginosa VIM-2; type: cell-based; conditions: Fixed Mero (meropenem) 4 μg/mL
Procedure, shortened: as §2

[6] = system: K. pneumoniae A-1797 expressing KPC-2 and VIM-4; assay: broth microdilution MIC, K. pneumoniae KPC-2 and VIM-4; type: cell-based; conditions: Fixed Mero (meropenem) 4 μg/mL
Procedure, shortened: as §2

[7] = system: S. aureus MSSA-7 producing penicillinase PC-1; assay: broth microdilution MIC, S. aureus PC-1; type: cell-based; conditions: Fixed Pip (piperacillin) 4 μg/mL
Procedure, shortened: as §2

[8] = imipenem substrate, 300 nm, 15 min at 37° C. preincubation, read-out: IC50 KPC-2 (Class A)

T1 sequence (P0A3M1 22-286): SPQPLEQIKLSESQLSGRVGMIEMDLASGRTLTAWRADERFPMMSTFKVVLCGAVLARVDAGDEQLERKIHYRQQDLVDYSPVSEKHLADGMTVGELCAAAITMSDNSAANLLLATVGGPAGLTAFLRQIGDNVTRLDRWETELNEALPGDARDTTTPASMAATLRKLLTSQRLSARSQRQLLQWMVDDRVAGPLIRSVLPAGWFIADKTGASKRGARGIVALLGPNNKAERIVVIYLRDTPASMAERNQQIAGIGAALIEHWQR

SMILES | IC50 (SHV-5 β-lactamase) | IC50 (KPC-2 β-lactamase) | IC50 [1] | IC50 (p99 AmpC β-lactamase) | IC50 (OXA-1 β-lactamase) | MIC of exemplary compounds in presence of fixed β-lactams, E. coli ESBL4 CTX-M-15 [2] | MIC of exemplary compounds in presence of fixed β-lactams, E. cl. 144200 p99 AmpC [3] | MIC of exemplary compounds in presence of fixed β-lactams, K.P. 156319 KPC-3 [4] | MIC of exemplary compounds in presence of fixed β-lactams, P. aerug. Ps296 VIM-2 [5] | MIC of exemplary compounds in presence of fixed β-lactams, K.P. A-1797 KPC-2 VIM-4 [6] | MIC of exemplary compounds in presence of fixed β-lactams, S. aureus MSSA-7 PC-1 [7] | IC50 (KPC-2 β-lactamase; [8])
NC(=O)CCC(=O)N[C@H]1Cc2cccc(C(=O)O)c2OB1O [Example 16, (R)-3-(3-Carbamoyl-propionylamino)-2-hydroxy-3,4-dihydro-2H-benzo[e][1,2]oxaborinine-8-carboxylic acid] | 100 to 1000 nM | < 100 nM | 100 to 1000 nM | < 100 nM | < 100 nM | C (C represents the MIC in the presence of ≤4 g/mL of a β-lactamase inhibitor) | C (C represents the MIC in the presence of ≤4 g/mL of a β-lactamase inhibitor) | C (C represents the MIC in the presence of ≤4 g/mL of a β-lactamase inhibitor) | C (C represents the MIC in the presence of ≤4 g/mL of a β-lactamase inhibitor) | B (B represents the MIC in the presence of between 8 and 32 g/mL of a β-lactamase inhibitor) | C (C represents the MIC in the presence of ≤4 g/mL of a β-lactamase inhibitor) | –
CC(CCC(=O)N[C@H]1Cc2cccc(C(=O)O)c2OB1O)=NO [Example 17, (R)-2-Hydroxy-3-(4-hydroxyimino-pentanoylamino)-3,4-dihydro-2H-benzo[e][1,2]oxaborinine-8-carboxylic acid] | < 100 nM | – | 1000 to 10000 nM | < 100 nM | < 100 nM | C (C represents the MIC in the presence of ≤4 g/mL of a β-lactamase inhibitor) | C (C represents the MIC in the presence of ≤4 g/mL of a β-lactamase inhibitor) | B (B represents the MIC in the presence of between 8 and 32 g/mL of a β-lactamase inhibitor) | C (C represents the MIC in the presence of ≤4 g/mL of a β-lactamase inhibitor) | B (B represents the MIC in the presence of between 8 and 32 g/mL of a β-lactamase inhibitor) | C (C represents the MIC in the presence of ≤4 g/mL of a β-lactamase inhibitor) | < 100 nM
CON=C(C)CCC(=O)N[C@H]1Cc2cccc(C(=O)O)c2OB1O [Example 18, (R)-2-Hydroxy-3-(4-methoxyimino-pentanoylamino)-3,4-dihydro-2H-benzo[e][1,2]oxaborinine-8-carboxylic acid] | < 100 nM | – | 1000 to 10000 nM | < 100 nM | < 100 nM | C (C represents the MIC in the presence of ≤4 g/mL of a β-lactamase inhibitor) | C (C represents the MIC in the presence of ≤4 g/mL of a β-lactamase inhibitor) | C (C represents the MIC in the presence of ≤4 g/mL of a β-lactamase inhibitor) | B (B represents the MIC in the presence of between 8 and 32 g/mL of a β-lactamase inhibitor) | A (A represents an MIC of the fixed β-lactam antibiotic in the presence of >32 g/mL of a β-lactamase inhibitor) | C (C represents the MIC in the presence of ≤4 g/mL of a β-lactamase inhibitor) | < 100 nM
CNC(=O)CCC(=O)N[C@H]1Cc2cccc(C(=O)O)c2OB1O [Example 19, (R)-2-Hydroxy-3-(3-methylcarbamoyl-propionylamino)-3,4-dihydro-2H-benzo[e][1,2]oxaborinine-8-carboxylic acid] | < 100 nM | – | 1000 to 10000 nM | < 100 nM | < 100 nM | C (C represents the MIC in the presence of ≤4 g/mL of a β-lactamase inhibitor) | C (C represents the MIC in the presence of ≤4 g/mL of a β-lactamase inhibitor) | C (C represents the MIC in the presence of ≤4 g/mL of a β-lactamase inhibitor) | A (A represents an MIC of the fixed β-lactam antibiotic in the presence of >32 g/mL of a β-lactamase inhibitor) | B (B represents the MIC in the presence of between 8 and 32 g/mL of a β-lactamase inhibitor) | B (B represents the MIC in the presence of between 8 and 32 g/mL of a β-lactamase inhibitor) | < 100 nM
CC(=O)NCCC(=O)N[C@H]1Cc2cccc(C(=O)O)c2OB1O [Example 20, (R)-3-(3-Acetylamino-propionylamino)-2-hydroxy-3,4-dihydro-2H-benzo[e][1,2]oxaborinine-8-carboxylicacid] | < 100 nM | – | 1000 to 10000 nM | < 100 nM | < 100 nM | C (C represents the MIC in the presence of ≤4 g/mL of a β-lactamase inhibitor) | C (C represents the MIC in the presence of ≤4 g/mL of a β-lactamase inhibitor) | C (C represents the MIC in the presence of ≤4 g/mL of a β-lactamase inhibitor) | A (A represents an MIC of the fixed β-lactam antibiotic in the presence of >32 g/mL of a β-lactamase inhibitor) | B (B represents the MIC in the presence of between 8 and 32 g/mL of a β-lactamase inhibitor) | B (B represents the MIC in the presence of between 8 and 32 g/mL of a β-lactamase inhibitor) | < 100 nM
CS(=O)(=O)CCC(=O)N[C@H]1Cc2cccc(C(=O)O)c2OB1O [Example 21, (R)-2-Hydroxy-3-(3-methanesulfonyl-propionylamino)-3,4-dihydro-2H-benzo[e][1,2]oxaborinine-8-carboxylic acid] | < 100 nM | – | 1000 to 10000 nM | < 100 nM | < 100 nM | C (C represents the MIC in the presence of ≤4 g/mL of a β-lactamase inhibitor) | C (C represents the MIC in the presence of ≤4 g/mL of a β-lactamase inhibitor) | C (C represents the MIC in the presence of ≤4 g/mL of a β-lactamase inhibitor) | A (A represents an MIC of the fixed β-lactam antibiotic in the presence of >32 g/mL of a β-lactamase inhibitor) | B (B represents the MIC in the presence of between 8 and 32 g/mL of a β-lactamase inhibitor) | C (C represents the MIC in the presence of ≤4 g/mL of a β-lactamase inhibitor) | < 100 nM
